In patent US4861878A, “1H-pyrido-(2,3-b) (1,4)-thiazines” (Bayer Aktiengesellschaft, priority 1985, dated 1989):
pIC50: −log10 of the molar value. Blank lines part the entries; values can stand above or below the compound they belong to.

Tests used:
lipoxygenase = target: T1, lipoxygenase (Rattus norvegicus, UniProt P12527); assay: LTB4 release from rat polymorphonuclear leucocytes (PMNL) after calcium ionophore A 23187, by HPLC (lipoxygenase inhibition); assay type: cell-based, rat (Wistar)
T1 construct: Polymorphonuclear leucocytes from rats (PMNL) were obtained from the peritoneal space in Wistar rats; endogenous in cells; host or cells: peritoneal polymorphonuclear leucocytes of Wistar rats (elicited with sodium caseinate)
T1 sequence (P12527 1-673): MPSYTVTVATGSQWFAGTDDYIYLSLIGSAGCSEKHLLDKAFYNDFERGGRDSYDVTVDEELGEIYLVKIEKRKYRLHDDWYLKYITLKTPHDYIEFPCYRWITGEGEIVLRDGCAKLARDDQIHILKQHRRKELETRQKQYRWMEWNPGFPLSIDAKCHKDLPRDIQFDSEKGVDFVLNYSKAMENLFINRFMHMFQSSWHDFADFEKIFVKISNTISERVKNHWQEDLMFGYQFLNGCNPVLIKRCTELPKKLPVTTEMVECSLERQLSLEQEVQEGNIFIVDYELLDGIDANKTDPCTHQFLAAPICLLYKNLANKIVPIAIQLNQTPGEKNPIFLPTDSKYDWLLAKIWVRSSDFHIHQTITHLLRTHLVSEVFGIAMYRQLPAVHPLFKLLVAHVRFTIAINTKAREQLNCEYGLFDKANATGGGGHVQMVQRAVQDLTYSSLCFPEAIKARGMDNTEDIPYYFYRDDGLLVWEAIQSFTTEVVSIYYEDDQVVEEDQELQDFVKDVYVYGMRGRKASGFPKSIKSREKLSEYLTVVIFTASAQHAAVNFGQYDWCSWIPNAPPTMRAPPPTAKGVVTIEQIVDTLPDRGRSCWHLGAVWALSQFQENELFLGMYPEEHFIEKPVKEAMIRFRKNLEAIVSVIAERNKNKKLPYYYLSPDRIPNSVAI
Description: The release of LTB4 on polymorphonuclear granulocytes after addition of substances and calcium ionophor was determined by means of HPLC as a measure of the lipoxygenase inhibition.
The combined ether phases were washed with 4 ml of water (double distilled), dried while gassing with nitrogen and taken up in 80 μl of methanol.
20 μl of each of the samples thus prepared were applied to a pre-packed column (Nucleosil, type 7.5 C 18M 4×25 mm) and chromatographed at a flow rate of 1 ml/min (Kontron pump system 600), methanol, H2 O and acetic acid (75:25:0.01) being used as the mobile phase. Detection was at 280 nm (Uvicon 720 LC). The formation of the metabolite was quantified with the aid of the internal standard PG B2 as a quotient of the area integrals (Shimadzu C-R1B) of LTB4 to PGB2 and an inhibition was determined as a percentage of the controls.

leucocyte migration = assay: Inhibition of leucocyte migration, small sponge impregnated with active compound under the skin on the backs of rats; assay type: in vivo; details: rat, local, 10 mg/rat, impregnated sponge under skin of back
Text: The 1H-pyrido-[2,3-b][1,4]-thiazines according to the invention also have an in vivo action.
The action of a 1H-pyrido-[2,3-b][1,4]-thiazine after local administration by insertion of a small sponge impregnated with active compound under the skin on the backs of rats may be mentioned as examples.

- Inhibition of leukotriene B4 biosynthesis, % inhibition (lipoxygenase; at 1·10^-5 (M/1), rat PMNL): 42%
Compound: O=C1CCCC2=C1Sc1ncccc1N2

Compound: CCOC(=O)C1=CNc2cccnc2S1 [Example 1, 3-Ethoxycarbonyl-1H-pyrido[2,3-b][1,4]-thiazine]
- pIC50 (lipoxygenase): 6.34
- Inhibition of Leucocyte migration (control = 0%) (leucocyte migration): 50%

Compound: COC(=O)C1=CNc2cccnc2S1 [Example 2]
- pIC50 (lipoxygenase): 5.30

Compound: CCCCOC(=O)C1=CNc2cccnc2S1 [Example 4]
- pIC50 (lipoxygenase): 7.26

Compound: CCOC(=O)C1=CN(CC#N)c2cccnc2S1 [Example 19]
- pIC50 (lipoxygenase): 5.59
